In US20230085307A1, “PYRIDAZINONE COMPOUND AND HERBICIDE” (NISSAN CHEMICAL CORPORATION, priority 2019, published 2023):

Assays:
southern crabgrass [1] = experiment: Test Example 4: herbicidal effect by soil treatment (Table 19, symbol F); type: in vivo, southern crabgrass (Digitaria ciliaris); conditions: amount of applied herbicide 320 g/ha
Procedure, shortened: (§1)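 Pre-emergence style soil spray: seeds under ~1.5 cm sterilized diluvial soil received a uniform coat of emulsion diluted to the predetermined herbicide amount. Greenhouse 25–30° C; readout at week three on previously defined criteria.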

Italian ryegrass [2] = experiment: Test Example 5: herbicidal effect by foliage application, plastic box (Table 20, symbol K); type: in vivo, Italian ryegrass (Lolium multiflorum); conditions: 320 g/ha
Procedure, shortened: (§2)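 Plants were sown into sterilized diluvial soil under about 1.5 cm cover and kept in a greenhouse at 25° C. to 30° C. Fourteen days on, foliage received an even spray of the diluted emulsion. Herbicidal or crop effect was judged three weeks afterwards.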

wild oat [3] = experiment: Test Example 4: herbicidal effect by soil treatment (Table 19, symbol I); type: in vivo, wild oat (Avena fatua); conditions: amount of applied herbicide 320 g/ha
Procedure, shortened: as §1

velvetleaf [4] = experiment: Test Example 4: herbicidal effect by soil treatment (Table 19, symbol M); type: in vivo, velvetleaf (Abutilon theophrasti); conditions: amount of applied herbicide 320 g/ha
Procedure, shortened: as §1

chickweed [5] = experiment: Test Example 4: herbicidal effect by soil treatment (Table 19, symbol P); type: in vivo, common chickweed (Stellaria media); conditions: amount of applied herbicide 320 g/ha
Procedure, shortened: as §1

wild oat [6] = experiment: Test Example 5: herbicidal effect by foliage application, plastic box (Table 20, symbol I); type: in vivo, wild oat (Avena fatua); conditions: 320 g/ha
Procedure, shortened: as §2

southern crabgrass [7] = experiment: Test Example 5: herbicidal effect by foliage application, plastic box (Table 20, symbol F); type: in vivo, southern crabgrass (Digitaria ciliaris); conditions: 320 g/ha
Procedure, shortened: as §2

Italian ryegrass [8] = experiment: Test Example 4: herbicidal effect by soil treatment (Table 19, symbol K); type: in vivo, Italian ryegrass (Lolium multiflorum); conditions: amount of applied herbicide 320 g/ha
Procedure, shortened: as §1

redroot pigweed [9] = experiment: Test Example 4: herbicidal effect by soil treatment (Table 19, symbol N); type: in vivo, redroot pigweed (Amaranthus retroflexus); conditions: amount of applied herbicide 320 g/ha
Procedure, shortened: as §1

barnyard grass [10] = experiment: Test Example 5: herbicidal effect by foliage application, plastic box (Table 20, symbol H); type: in vivo, barnyard grass (Echinochloa crus-galli); conditions: 320 g/ha
Procedure, shortened: as §2

windgrass [11] = experiment: Test Example 5: herbicidal effect by foliage application, plastic box (Table 20, symbol L); type: in vivo, windgrass (Apera spica-venti); conditions: 320 g/ha
Procedure, shortened: as §2

lambsquarters [12] = experiment: Test Example 4: herbicidal effect by soil treatment (Table 19, symbol O); type: in vivo, lambsquarters (Chenopodium album); conditions: amount of applied herbicide 320 g/ha
Procedure, shortened: as §1

green foxtail [13] = experiment: Test Example 4: herbicidal effect by soil treatment (Table 19, symbol G); type: in vivo, green foxtail (Setaria viridis); conditions: amount of applied herbicide 320 g/ha
Procedure, shortened: as §1

rice flat sedge = experiment: Test Example 3: herbicidal effect by foliage application, Wagner pot (Table 18, symbol E); type: in vivo, rice flat sedge (Cyperus iria); conditions: 320 g/ha
Procedure, shortened: (§3)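 Plants were sown in alluvial soil held under 0.1–0.5 cm standing water and grown 14 days in a greenhouse at 25–30 °C. An emulsifiable formulation, water-diluted to the set dose, was then sprayed onto the foliage, and effects were scored three weeks later using previously defined criteria.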

redroot pigweed [14] = experiment: Test Example 5: herbicidal effect by foliage application, plastic box (Table 20, symbol N); type: in vivo, redroot pigweed (Amaranthus retroflexus); conditions: 320 g/ha
Procedure, shortened: as §2

late watergrass = experiment: Test Example 1: herbicidal activity, application before weed generation under submerged conditions (Table 16, symbol A); type: in vivo, late watergrass (Echinochloa oryzicola); conditions: amount of applied herbicide 320 g/ha
Procedure, shortened: (§4)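 Emulsion formulation, water-diluted to set dose, was put onto the flooded surface (4 cm depth, alluvial soil) the same day weeds were sown and 2.5-leaf rice transplanted. After 3 weeks at 25-30 °C under glass, each species was rated 0 (≤5% kill) to 5 (≥90% kill).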

persian speedwell [15] = experiment: Test Example 5: herbicidal effect by foliage application, plastic box (Table 20, symbol R); type: in vivo, Persian speedwell (Veronica persica); conditions: 320 g/ha
Procedure, shortened: as §2

windgrass [16] = experiment: Test Example 4: herbicidal effect by soil treatment (Table 19, symbol L); type: in vivo, windgrass (Apera spica-venti); conditions: amount of applied herbicide 320 g/ha
Procedure, shortened: as §1

blackgrass [17] = experiment: Test Example 5: herbicidal effect by foliage application, plastic box (Table 20, symbol J); type: in vivo, blackgrass (Alopecurus myosuroides); conditions: 320 g/ha
Procedure, shortened: as §2

barnyard grass [18] = experiment: Test Example 3: herbicidal effect by foliage application, Wagner pot (Table 18, symbol H); type: in vivo, barnyard grass (Echinochloa crus-galli); conditions: 320 g/ha
Procedure, shortened: as §3

lambsquarters [19] = experiment: Test Example 5: herbicidal effect by foliage application, plastic box (Table 20, symbol O); type: in vivo, lambsquarters (Chenopodium album); conditions: 320 g/ha
Procedure, shortened: as §2

Japanese bulrush = experiment: Test Example 1: herbicidal activity, application before weed generation under submerged conditions (Table 16, symbol B); type: in vivo, Japanese bulrush (Schoenoplectus juncoides); conditions: amount of applied herbicide 320 g/ha
Procedure, shortened: as §4

chickweed [20] = experiment: Test Example 5: herbicidal effect by foliage application, plastic box (Table 20, symbol P); type: in vivo, common chickweed (Stellaria media); conditions: 320 g/ha
Procedure, shortened: as §2

green foxtail [21] = experiment: Test Example 5: herbicidal effect by foliage application, plastic box (Table 20, symbol G); type: in vivo, green foxtail (Setaria viridis); conditions: 320 g/ha
Procedure, shortened: as §2

oval-leafed pondweed = experiment: Test Example 1: herbicidal activity, application before weed generation under submerged conditions (Table 16, symbol C); type: in vivo, oval-leafed pondweed (Monochoria vaginalis); conditions: amount of applied herbicide 320 g/ha
Procedure, shortened: as §4

Chinese sprangletop = experiment: Test Example 3: herbicidal effect by foliage application, Wagner pot (Table 18, symbol D); type: in vivo, chinese sprangletop (Leptochloa chinensis); conditions: 320 g/ha
Procedure, shortened: as §3

barnyard grass [22] = experiment: Test Example 4: herbicidal effect by soil treatment (Table 19, symbol H); type: in vivo, barnyard grass (Echinochloa crus-galli); conditions: amount of applied herbicide 320 g/ha
Procedure, shortened: as §1

false cleavers = experiment: Test Example 4: herbicidal effect by soil treatment (Table 19, symbol Q); type: in vivo, false cleavers (Galium spurium); conditions: amount of applied herbicide 320 g/ha
Procedure, shortened: as §1

velvetleaf [23] = experiment: Test Example 5: herbicidal effect by foliage application, plastic box (Table 20, symbol M); type: in vivo, velvetleaf (Abutilon theophrasti); conditions: 320 g/ha
Procedure, shortened: as §2

blackgrass [24] = experiment: Test Example 4: herbicidal effect by soil treatment (Table 19, symbol J); type: in vivo, blackgrass (Alopecurus myosuroides); conditions: amount of applied herbicide 320 g/ha
Procedure, shortened: as §1

persian speedwell [25] = experiment: Test Example 4: herbicidal effect by soil treatment (Table 19, symbol R); type: in vivo, Persian speedwell (Veronica persica); conditions: amount of applied herbicide 320 g/ha
Procedure, shortened: as §1

[26] = foliage application, three weeks after application
[27] = foliage application after 14-day growth, evaluated three weeks after application

Structure (SMILES) | Herbicidal effect by soil treatment, F: southern crabgrass (southern crabgrass [1]) | Herbicidal effect by soil treatment, I: wild oat (wild oat [3]) | Herbicidal effect by soil treatment, M: velvetleaf (velvetleaf [4]) | Herbicidal effect by soil treatment, P: chickweed (chickweed [5]) | Herbicidal effect by soil treatment, K: Italian ryegrass (Italian ryegrass [8]) | Herbicidal effect by soil treatment, N: redroot pigweed (redroot pigweed [9]) | Herbicidal effect by soil treatment, O: lambsquarters (lambsquarters [12]) | Herbicidal effect by soil treatment, G: green foxtail (green foxtail [13]) | herbicidal effect on rice flat sedge (E) (rice flat sedge) | Herbicidal effect, A: late watergrass (late watergrass) | Herbicidal effect by soil treatment, L: windgrass (windgrass [16]) | herbicidal effect on barnyard grass (H) (barnyard grass [18]) | Herbicidal effect, B: Japanese bulrush (Japanese bulrush) | Herbicidal effect, C: oval-leafed pondweed (oval-leafed pondweed) | herbicidal effect on Chinese sprangletop (D) (Chinese sprangletop) | Herbicidal effect by soil treatment, H: barnyard grass (barnyard grass [22]) | Herbicidal effect by soil treatment, Q: false cleavers (false cleavers) | Herbicidal effect by soil treatment, J: blackgrass (blackgrass [24]) | Herbicidal effect by soil treatment, R: persian speedwell (persian speedwell [25]) | also measured
Cc1nn(C)c(=O)c(-c2c(-c3ccc(OC(F)F)cc3)sc3cc(F)ccc23)c1O [3-141] | 0 (Herbicidal rate of 5% or less (almost no effect)) | 0 (Herbicidal rate of 5% or less (almost no effect)) | 3 (Herbicidal rate of 40% or more and less than 70%) | 3 (Herbicidal rate of 40% or more and less than 70%) | 3 (Herbicidal rate of 40% or more and less than 70%) | 5 (Herbicidal rate of 90% or more (almost completely withered)) | 5 (Herbicidal rate of 90% or more (almost completely withered)) | 1 (Herbicidal rate of 5% or more and less than 20%) | 5 (Herbicidal rate of 90% or more (almost completely withered)) | 3 (Herbicidal rate of 40% or more and less than 70%) | 3 (Herbicidal rate of 40% or more and less than 70%) | 5 (Herbicidal rate of 90% or more (almost completely withered)) | 0 (Herbicidal rate of 5% or less (almost no effect)) | 0 (Herbicidal rate of 5% or less (almost no effect)) | 2 (Herbicidal rate of 20% or more and less than 40%) | 3 (Herbicidal rate of 40% or more and less than 70%) | 0 (Herbicidal rate of 5% or less (almost no effect)) | 3 (Herbicidal rate of 40% or more and less than 70%) | 4 (Herbicidal rate of 70% or more and less than 90%) | K: Italian ryegrass, herbicidal effect grade (Italian ryegrass [2]; [26]): 5 (Herbicidal rate of 90% or more (almost completely withered)); I: wild oat, herbicidal effect grade (wild oat [6]; [26]): 1 (Herbicidal rate of 5% or more and less than 20%); F: southern crabgrass, herbicidal effect grade (southern crabgrass [7]; [26]): 0 (Herbicidal rate of 5% or less (almost no effect)); H: barnyard grass, herbicidal effect grade (barnyard grass [10]; [26]): 4 (Herbicidal rate of 70% or more and less than 90%); L: windgrass, herbicidal effect grade (windgrass [11]; [26]): 5 (Herbicidal rate of 90% or more (almost completely withered)); N: redroot pigweed, herbicidal effect grade (redroot pigweed [14]; [26]): 5 (Herbicidal rate of 90% or more (almost completely withered)); R: persian speedwell, herbicidal effect grade (persian speedwell [15]; [26]): 5 (Herbicidal rate of 90% or more (almost completely withered)); J: blackgrass, herbicidal effect grade (blackgrass [17]; [26]): 4 (Herbicidal rate of 70% or more and less than 90%); O: lambsquarters, herbicidal effect grade (lambsquarters [19]; [26]): 5 (Herbicidal rate of 90% or more (almost completely withered)); P: chickweed, herbicidal effect grade (chickweed [20]; [26]): 5 (Herbicidal rate of 90% or more (almost completely withered)); G: green foxtail, herbicidal effect grade (green foxtail [21]; [26]): 5 (Herbicidal rate of 90% or more (almost completely withered)); M: velvetleaf, herbicidal effect grade (velvetleaf [23]; [26]): 5 (Herbicidal rate of 90% or more (almost completely withered))
CSc1ccc(-c2sc3c(F)cccc3c2-c2c(O)c(C)nn(C)c2=O)cc1 [4-050] | 2 (Herbicidal rate of 20% or more and less than 40%) | 0 (Herbicidal rate of 5% or less (almost no effect)) | 3 (Herbicidal rate of 40% or more and less than 70%) | 4 (Herbicidal rate of 70% or more and less than 90%) | 1 (Herbicidal rate of 5% or more and less than 20%) | 4 (Herbicidal rate of 70% or more and less than 90%) | 3 (Herbicidal rate of 40% or more and less than 70%) | 3 (Herbicidal rate of 40% or more and less than 70%) | 4 (Herbicidal rate of 70% or more and less than 90%) | 3 (Herbicidal rate of 40% or more and less than 70%) | 0 (Herbicidal rate of 5% or less (almost no effect)) | 5 (Herbicidal rate of 90% or more (almost completely withered)) | 0 (Herbicidal rate of 5% or less (almost no effect)) | 0 (Herbicidal rate of 5% or less (almost no effect)) | 4 (Herbicidal rate of 70% or more and less than 90%) | 2 (Herbicidal rate of 20% or more and less than 40%) | 0 (Herbicidal rate of 5% or less (almost no effect)) | 0 (Herbicidal rate of 5% or less (almost no effect)) | 4 (Herbicidal rate of 70% or more and less than 90%) | herbicidal effect on K: Italian ryegrass (evaluation grade 0-5) (Italian ryegrass [2]; [27]): 4 (Herbicidal rate of 70% or more and less than 90%); herbicidal effect on I: wild oat (evaluation grade 0-5) (wild oat [6]; [27]): 1 (Herbicidal rate of 5% or more and less than 20%); herbicidal effect on F: southern crabgrass (evaluation grade 0-5) (southern crabgrass [7]; [27]): 2 (Herbicidal rate of 20% or more and less than 40%); herbicidal effect on H: barnyard grass (evaluation grade 0-5) (barnyard grass [10]; [27]): 5 (Herbicidal rate of 90% or more (almost completely withered)); herbicidal effect on L: windgrass (evaluation grade 0-5) (windgrass [11]; [27]): 5 (Herbicidal rate of 90% or more (almost completely withered)); herbicidal effect on N: redroot pigweed (evaluation grade 0-5) (redroot pigweed [14]; [27]): 5 (Herbicidal rate of 90% or more (almost completely withered)); herbicidal effect on R: persian speedwell (evaluation grade 0-5) (persian speedwell [15]; [27]): 5 (Herbicidal rate of 90% or more (almost completely withered)); herbicidal effect on J: blackgrass (evaluation grade 0-5) (blackgrass [17]; [27]): 3 (Herbicidal rate of 40% or more and less than 70%); herbicidal effect on O: lambsquarters (evaluation grade 0-5) (lambsquarters [19]; [27]): 5 (Herbicidal rate of 90% or more (almost completely withered)); herbicidal effect on P: chickweed (evaluation grade 0-5) (chickweed [20]; [27]): 5 (Herbicidal rate of 90% or more (almost completely withered)); herbicidal effect on G: green foxtail (evaluation grade 0-5) (green foxtail [21]; [27]): 5 (Herbicidal rate of 90% or more (almost completely withered)); herbicidal effect on M: velvetleaf (evaluation grade 0-5) (velvetleaf [23]; [27]): 5 (Herbicidal rate of 90% or more (almost completely withered))
